From PubChem BioAssay AID248 (DTP/NCI, 2004)
“And” between values parts separate entries of the source, which are not always exact repeats. Equal entries are not always repeated. Inconclusive results and toxic doses are left out. Rule as the data show it: active = T/C of 150% or more; inactive = T/C below 125%.

Test system: L1210 leukemia ip in BDF1 mice, survival T/C
Assay: NCI In Vivo Anticancer Drug Screen. Data for tumor model L1210 Leukemia (intraperitoneal) in B6D2F1 (BDF1) mice
Conditions: endpoint: mean survival time, higher = longer survival
Method in brief: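 Value reflects the ratio of survival in compound-treated mice to survival in vehicle-treated controls, with both groups carrying the same transplanted tumor.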

[1] = dose: 100.0 mg/kg/injection, schedule: Q04DX003 (ip), vehicle: saline with Tween-80
[2] = dose: 200.0 mg/kg/injection, schedule: Q04DX003 (ip), vehicle: saline with Tween-80
[3] = dose: 400.0 mg/kg/injection, schedule: Q04DX003 (ip), vehicle: saline with Tween-80
[4] = dose: 100.0 mg/kg/injection, schedule: Q01DX009 (ip), vehicle: Klucel (hydroxypropylcellulose) (HPC)
[5] = dose: 100.0 mg/kg/injection, schedule: Q04DX003 (ip), vehicle: Klucel (hydroxypropylcellulose) (HPC)
[6] = dose: 200.0 mg/kg/injection, schedule: Q01DX009 (ip), vehicle: Klucel (hydroxypropylcellulose) (HPC)
[7] = dose: 200.0 mg/kg/injection, schedule: Q04DX003 (ip), vehicle: Klucel (hydroxypropylcellulose) (HPC)
[8] = dose: 400.0 mg/kg/injection, schedule: Q01DX009 (ip), vehicle: Klucel (hydroxypropylcellulose) (HPC)
[9] = dose: 400.0 mg/kg/injection, schedule: Q04DX003 (ip), vehicle: Klucel (hydroxypropylcellulose) (HPC)
[10] = dose: 50.0 mg/kg/injection, schedule: Q01DX009 (ip), vehicle: saline
[11] = dose: 100.0 mg/kg/injection, schedule: Q01DX001 (ip), vehicle: saline
[12] = dose: 100.0 mg/kg/injection, schedule: Q01DX009 (ip), vehicle: saline
[13] = dose: 200.0 mg/kg/injection, schedule: Q01DX001 (ip), vehicle: saline
[14] = dose: 200.0 mg/kg/injection, schedule: Q01DX009 (ip), vehicle: saline
[15] = dose: 100.0 mg/kg/injection, schedule: Q04DX003 (ip), vehicle: saline
[16] = dose: 200.0 mg/kg/injection, schedule: Q04DX003 (ip), vehicle: saline
[17] = dose: 400.0 mg/kg/injection, schedule: Q01DX001 (ip), vehicle: saline

Measured: T/C

N#CC(CN1CCOCC1)[N+](=O)[O-] (centres undefined)
inactive: [1] 98 % of control | [2] 93 % of control | [3] 95 % of control

Clc1[nH]nc2ccccc12
inactive: dose: 25.0 mg/kg/injection, schedule: Q01DX009 (ip), vehicle: saline sonified 101 % of control | dose: 50.0 mg/kg/injection, schedule: Q01DX009 (ip), vehicle: saline sonified 93 % of control | dose: 100.0 mg/kg/injection, schedule: Q01DX001 (ip), vehicle: saline sonified 91 % of control | dose: 100.0 mg/kg/injection, schedule: Q01DX009 (ip), vehicle: saline sonified 97 % of control

C=C1c2c(Cl)cccc2C(CC)(CC)c2cccc(Cl)c21
inactive: [1] 94 % of control | [2] 94 % of control | [3] 92 % of control

c1ccc(COc2ccc3oc4ccccc4c3c2)cc1
inactive: [4] 96 % of control | [5] 94 % of control | [6] 94 % of control | [7] 96 % of control | [8] 96 % of control | [9] 91 % of control

O=C1CCC(CCl)O1 (centres undefined)
inactive: dose: 75.0 mg/kg/injection, schedule: Q01DX009 (ip), vehicle: other 100 % of control | dose: 100.0 mg/kg/injection, schedule: Q04DX002 (ip), vehicle: other 93 % of control | dose: 150.0 mg/kg/injection, schedule: Q01DX009 (ip), vehicle: other 104 % of control | dose: 200.0 mg/kg/injection, schedule: Q04DX002 (ip), vehicle: other 93 % of control | dose: 300.0 mg/kg/injection, schedule: Q01DX009 (ip), vehicle: other 96 % of control | dose: 400.0 mg/kg/injection, schedule: Q04DX002 (ip), vehicle: other 110 % of control

O=C(c1ccccc1)C(O)(c1ccccc1)C1CCCC/C1=N\N(c1ccccc1)c1ccccc1 (centres undefined)
inactive: [1] 92 % of control | [2] 96 % of control | [3] 94 % of control

O=C(NC1CCCCC1)O/N=C/c1ccccn1
inactive: dose: 100.0 mg/kg/injection, schedule: Q04DX003 (ip), vehicle: other 94 % of control | dose: 200.0 mg/kg/injection, schedule: Q04DX003 (ip), vehicle: other 109 % of control | dose: 400.0 mg/kg/injection, schedule: Q04DX003 (ip), vehicle: other 94 % of control

O=C(O)/C=C/c1ccccn1
inactive: dose: 20.0 mg/kg/injection, schedule: Q04DX003 (ip), vehicle: Klucel (hydroxypropylcellulose) (HPC) 102 % of control | dose: 40.0 mg/kg/injection, schedule: Q04DX003 (ip), vehicle: Klucel (hydroxypropylcellulose) (HPC) 100 % of control | dose: 80.0 mg/kg/injection, schedule: Q04DX003 (ip), vehicle: Klucel (hydroxypropylcellulose) (HPC) 94 % of control | [5] 93 % of control | [7] 100 % of control

Cc1cccc(C)c1OC(=O)Nc1ccc(Cl)cc1
inactive: dose: 100.0 mg/kg/injection, schedule: Q04DX002 (ip), vehicle: Klucel (hydroxypropylcellulose) (HPC) 96 % of control | dose: 200.0 mg/kg/injection, schedule: Q04DX002 (ip), vehicle: Klucel (hydroxypropylcellulose) (HPC) 110 % of control | dose: 400.0 mg/kg/injection, schedule: Q04DX002 (ip), vehicle: Klucel (hydroxypropylcellulose) (HPC) 96 % of control

O=P1(c2ccccc2)CCc2[nH]c3ccc(Cl)cc3c2C1 (centres undefined)
inactive: [5] 100 % of control | [7] 107 % of control | [9] 112 % of control

COC(=O)C1CCCC23CC(CC12)C(C)(C)C3Br (centres undefined)
inactive: [4] 94 % of control | [5] 97 % of control | [6] 97 % of control | [7] 90 % of control | [8] 90 % of control | [9] 97 % of control

COc1ccc(-c2c(-c3ccccc3)c(=O)oc3ccc4ccccc4c23)cc1
inactive: [5] 97 % of control | [7] 100 % of control | [9] 97 % of control

CN(C)c1ccc(C=Nc2cccc(Cl)c2)cc1
inactive: [5] 91 % of control | [7] 93 % of control | [9] 91 % of control

COc1ccc(CN(C)N=Nc2ccc(C#N)cc2)cc1
inactive: dose: 100.0 mg/kg/injection, schedule: Q01DX009 (ip), vehicle: saline with Tween-80 98 % of control | dose: 200.0 mg/kg/injection, schedule: Q01DX009 (ip), vehicle: saline with Tween-80 119 % of control | dose: 400.0 mg/kg/injection, schedule: Q01DX009 (ip), vehicle: saline with Tween-80 124 % of control

Cc1cc(C)c(S(=O)(=O)Cc2cc(Cl)cc(Cl)c2O)c(C)c1
inactive: [10] 86 % of control | dose: 50.0 mg/kg/injection, schedule: Q04DX003 (ip), vehicle: acetone 93 % of control | [11] 88 % of control | [12] 105 % of control | dose: 100.0 mg/kg/injection, schedule: Q04DX003 (ip), vehicle: acetone 89 % of control | [13] 87 % of control | [14] 91 % of control | dose: 200.0 mg/kg/injection, schedule: Q04DX003 (ip), vehicle: acetone 91 % of control

Cn1c(=O)n2n(c1=O)C1CCC2C2C=CC21 (centres undefined)
inactive: dose: 6.25 mg/kg/injection, schedule: Q01DX001 (ip), vehicle: saline 93 % of control | dose: 12.5 mg/kg/injection, schedule: Q01DX001 (ip), vehicle: saline 94 % of control

O=C(O)c1ccc2c(c1Sc1ccccc1)C(=O)c1ccccc1C2=O
inactive: dose: 75.0 mg/kg/injection, schedule: Q01DX001 (ip), vehicle: saline 104 % of control | dose: 150.0 mg/kg/injection, schedule: Q01DX001 (ip), vehicle: saline 107 % of control | dose: 300.0 mg/kg/injection, schedule: Q01DX001 (ip), vehicle: saline 91 % of control

COc1cc(I)c(CC(=O)O)cc1OC
inactive: [11] 97 % of control | [12] 93 % of control | [15] 96 % of control | [13] 97 % of control | [14] 91 % of control | [16] 96 % of control | [17] 96 % of control | dose: 400.0 mg/kg/injection, schedule: Q01DX009 (ip), vehicle: saline 96 % of control | dose: 400.0 mg/kg/injection, schedule: Q04DX003 (ip), vehicle: saline 90 % of control

COc1ccc2c(c1)C13CCN(C)C(C2)C1CCC1(C3)OCCO1 (centres undefined)
inactive: dose: 12.5 mg/kg/injection, schedule: Q01DX009 (ip), vehicle: saline 103 % of control | dose: 25.0 mg/kg/injection, schedule: Q01DX009 (ip), vehicle: saline 94 % of control | [10] 97 % of control | [11] 109 % of control | [4] 106 % of control | [15] 105 % of control | [13] 101 % of control | [16] 86 % of control | [17] 95 % of control

CN(C)N=Nc1ccccc1C(F)(F)F
inactive: dose: 50.0 mg/kg/injection, schedule: Q01DX009 (ip), vehicle: Klucel (hydroxypropylcellulose) (HPC) 109 % of control | [4] 103 % of control and 107 % of control | [5] 104 % of control | [6] 107 % of control and 108 % of control | [7] 104 % of control | [8] 111 % of control and 114 % of control | [9] 109 % of control

CC(C)c1cc(O)ccc1N(C)C (tested in a mixture with another compound)
inactive: dose: 3.2 micrograms/kg/injection, schedule: Q01DX009 (ip), vehicle: saline 97 % of control | dose: 8.0 micrograms/kg/injection, schedule: Q01DX009 (ip), vehicle: saline 90 % of control | dose: 16.0 micrograms/kg/injection, schedule: Q01DX009 (ip), vehicle: saline 87 % of control | dose: 32.0 micrograms/kg/injection, schedule: Q01DX009 (ip), vehicle: saline 90 % of control

O=C(O)COCc1ccccc1
inactive: dose: 100.0 mg/kg/injection, schedule: Q04DX003 (ip), vehicle: saline sonified 97 % of control | dose: 200.0 mg/kg/injection, schedule: Q04DX003 (ip), vehicle: saline sonified 92 % of control | dose: 400.0 mg/kg/injection, schedule: Q04DX003 (ip), vehicle: saline sonified 92 % of control

CC1(C)C2CC3C=CCCC3(C2)C1Br (centres undefined)
inactive: dose: 100.0 mg/kg/injection, schedule: Q01DX001 (ip), vehicle: Klucel (hydroxypropylcellulose) (HPC) 103 % of control | dose: 200.0 mg/kg/injection, schedule: Q01DX001 (ip), vehicle: Klucel (hydroxypropylcellulose) (HPC) 92 % of control | dose: 400.0 mg/kg/injection, schedule: Q01DX001 (ip), vehicle: Klucel (hydroxypropylcellulose) (HPC) 100 % of control

O=C(Nc1ccc(C2=NCCCN2)cc1)N1CCN(C(=O)Nc2ccc(C3=NCCCN3)cc2)CC1
inactive: dose: 10.0 mg/kg/injection, schedule: Q01DX Z (ip), vehicle: water 106 % of control | dose: 20.0 mg/kg/injection, schedule: Q01DX Z (ip), vehicle: water 120 % of control
